Experimental data reported in paper PMC4707509, “TSPO ligand residence time: a new parameter to predict compound neurosteroidogenic efficacy” (Scientific Reports, 2016).
Where two headings read alike, the source gives them in different places.

Key:
TSPO [1] = tested on: TSPO; set-up: method as in PMID 25654303; conditions: relative to XBD173; cited from earlier work
neurosteroid synthesis = tested on: neurosteroid synthesis; set-up: method as in PMID 25654303; conditions: relative to XBD173; cited from earlier work
TSPO [2] = target: T1, TSPO (Rattus norvegicus, UniProt P16257); assay: [3H]PK11195 binding displacement assay, rat kidney membranes; conditions: read-out: Equilibrium Ki
T1 construct: Membranes from rat kidneys were prepared as described previously; from tissue; host or cells: rat kidney membranes
Protocol: (§1) Membranes from rat kidneys were prepared as described previously. All the experimental procedures were carried out following the guidelines of the European Community Council Directive 86–609 and have been approved by the Committee for animal experimentation of the University of Pisa. The resulting membrane pellets were aliquoted and frozen at –20 °C. For all radioligand binding assays, an aliquot of membranes was thawed, suspended in assay buffer (AB, Tris-HCl 50 mM, pH 7.4) and homogenized using Ultraturrax. In cell membrane homogenate, protein content was measured by the Bradford method[52] using the Bio-Rad Protein Assay reagent.
(§2) All experiments were analyzed by either linear or non linear regression using Prism 5.0 (GraphPad Software Inc., San Diego, CA). […] Competition displacement binding were fitted to sigmoidal (variable slope) curves.

TSPO [3] = target: T1, TSPO; assay: Simplified (one-concentration) competition kinetic association assay; type: binding; conditions: for dissociation rate of the ligand from TSPO (rapid or slow competitor of [3H]PK11195): shape of [3H]PK11195 association curve, ligand at three-fold Ki; for Kd / koff / kon: unlabeled ligand at three-fold Ki only; for Kd: read-out: Kinetically-derived Kd = Koff/Kon
Protocol: The unlabeled TSPO ligand kinetic parameters were assessed using the theoretical model of Motulsky and Mahan[32]. Unlike methods in which one compound is pre-equilibrated with the receptor, this approach involves the simultaneous addition of both radioligand and competitor to receptor preparation, so that at t = 0 all receptors are unoccupied. […] The degree of bound to TSPO was assessed at multiple time points by filtration harvesting and liquid scintillation counting, as above described. […] For ‘simplified’ competition kinetic association assays, the experiments were performed using concentration of unlabeled TSPO ligands corresponding to three-fold their Ki.
Association and dissociation rates for unlabeled TSPO ligands were calculated by fitting the data in the competition association model using the ‘kinetics of competitive binding’ assay, defining the amount of radioligand bound to receptor ([RL]) as a function of time[32]: […]

rat C6 glioma cells = assay: Pregnenolone production in C6 glioma cells (ELISA); type: cell-based; conditions: for Emax at 100 µM / EC50: Rattus norvegicus, 2 h; for Emax at 100 µM: read-out: Emax (at 100 μM) (vehicle set to 100%); for EC50: read-out: EC50 (pregnenolone production); for steroidogenic efficacy, ranking in words: among all tested TSPO ligands
rat = conditions: cited from earlier work; for anxiolytic activity in EPM test: rat
human glial cell model = tested on: human glial cell model; set-up: method as in PMID 20728278; conditions: cited from earlier work
GABAA receptor = tested on: GABAA receptor; set-up: method as in PMID 20728278; conditions: conditioned medium of treated glial cells; cited from earlier work
TSPO [4] = target: T1, TSPO; assay: [3H]PK11195 binding saturation assay, rat kidney membranes; conditions: [3H]PK11195 saturation binding
Protocol: as §1, §2

[5] = displacement of 1 nM [3H]PK11195, rat kidney membranes, 0 °C
[6] = pregnenolone production at 100 μM ligand, C6 cells
[7] = C6 cells, 0-100 μM ligand, serum-free

| Structure (SMILES) | Ki (TSPO [2]; [5]) [nM] | dissociation rate of the ligand from TSPO (rapid or slow competitor of [3H]PK11195) (TSPO [3]) | Kd (TSPO [3]) [nM] | Emax at 100 µM (rat C6 glioma cells; [6]) [%] | EC50 (rat C6 glioma cells; [7]) [µM] | Ki (TSPO [2]) [nM] | koff (TSPO [3]) [s⁻¹] | kon (TSPO [3]) [M⁻¹ s⁻¹] | other results |
| --- | --- | --- | --- | --- | --- | --- | --- | --- | --- |
| CCNC1=Nc2ccc(Cl)cc2C(C)(c2ccccc2)O1 (stereo not shown) [Etifoxine] |  |  |  |  |  |  |  |  | binding affinity to TSPO, fold lower than XBD173 (TSPO [1]): approximately 140 fold; potency to stimulate neurosteroidogenesis compared with XBD173 (neurosteroid synthesis): more potent |
| CCCN(CCC)C(=O)C(=O)c1c(-c2ccccc2)[nH]c2ccccc12 [PIGA719] | 12.2 ± 1.1 | rapid | 11.9 ± 1 | 146 ± 2 | 12.9 ± 1.5 |  |  |  |  |
| CCCCCCN(CCCCCC)C(=O)C(=O)c1c(-c2ccccc2)[nH]c2ccccc12 [PIGA720] | 1.4 ± 0.28 | rapid | 1.79 ± 0.24 | 144 ± 4 | 29.7 ± 3.1 |  |  |  |  |
| CCCCCCN(CCCCCC)C(=O)C(=O)c1c(-c2ccccc2)[nH]c2ccc(Cl)cc12 [PIGA745] |  | rapid | 15.1 ± 1.16 | 140 ± 5 | 34.6 ± 3.6 | 13.1 ± 1.16 | 0.000967 | 64000 |  |
| CCN(Cc1ccccc1)C(=O)C(=O)c1c(-c2ccc(Cl)cc2)[nH]c2ccc(Cl)cc12 [PIGA823] | 3.3 ± 0.31 | slow | 1.86 ± 0.17 | 272 ± 11 | 12.2 ± 1.3 |  |  |  | steroidogenic efficacy, ranking in words (rat C6 glioma cells; C6 cells): highest efficacy; anxiolytic activity in EPM test (rat): significant anxiolytic activity |
| CCCCN(CCCC)C(=O)C(=O)c1c(-c2ccc(Cl)cc2)[nH]c2ccc(Cl)cc12 [PIGA835] |  | rapid | 1 ± 0.19 | 149 ± 4 | 25.6 ± 2.3 | 0.91 ± 0.11 | 0.000967 | 963000 |  |
| CCCN(CCC)C(=O)C(=O)c1c(-c2ccc(C)cc2)[nH]c2ccccc12 [PIGA839] | 5.5 ± 0.47 | slow | 5.45 ± 0.6 | 254 ± 5 | 16.3 ± 1.4 |  | 0.00015 | 28200 | steroidogenic efficacy, ranking in words (rat C6 glioma cells; C6 cells): highest efficacy; anxiolytic activity in EPM test (rat): significant anxiolytic activity; allopregnanolone in medium of treated cells (human glial cell model): high levels; 36Cl- uptake into cerebral cortical synaptoneurosomes (GABAA receptor): potentiated |
| CCCCCCN(CCCCCC)C(=O)C(=O)c1c(-c2ccccc2)[nH]c2ccc([N+](=O)[O-])cc12 [PIGA925] |  | rapid | 10 ± 1.13 | 166 ± 5 | 9.71 ± 1 | 12.2 ± 3.14 | 0.00113 | 113000 |  |
| CCCN(CCC)C(=O)C(=O)c1c(-c2ccc3ccccc3c2)[nH]c2ccccc12 [PIGA1128] | 0.31 ± 0.02 | slow | 0.22 ± 0.05 | 179 ± 7 | 26.1 ± 1.5 |  | 0.0003 | 1.35e+06 |  |
| CCCCCN(C)C(=O)C(=O)c1c(-c2ccc3ccccc3c2)[nH]c2ccccc12 [PIGA1138] |  | slow | 0.17 ± 0.03 | 275 ± 5 | 13.1 ± 1.4 | 0.34 ± 0.03 | 0.000117 | 717000 | steroidogenic efficacy, ranking in words (rat C6 glioma cells; C6 cells): highest efficacy |
| CCCCCCN(CCCCCC)C(=O)C(=O)c1c(-c2ccc(C(=O)O)cc2)[nH]c2ccccc12 [PIGA1214] |  | rapid | 332 ± 15 | 141 ± 4 | 92 ± 5.6 | 343 ± 15.9 |  |  |  |
| CCC(C)N(C)C(=O)c1cc2ccccc2c(-c2ccccc2Cl)n1 (stereo not shown) [PK11195, reference compound] |  |  |  | 153 ± 4 |  |  |  |  | Bmax (TSPO [4]): 6498 ± 500 fmol/mg of proteins; EC50 (rat C6 glioma cells): 19.5 ± 1.8 µM; anxiolytic effect in EPM test (rat): does not determine anxiolytic effect |
| CN1C(=O)CN=C(c2ccc(Cl)cc2)c2cc(Cl)ccc21 [Ro5-4864, reference compound] |  | rapid |  |  |  |  |  |  | EC50 (rat C6 glioma cells): 36.2 ± 2.5 µM; Emax at 100 µM (rat C6 glioma cells): 150 ± 4%; anxiolytic effect in EPM test (rat): does not determine anxiolytic effect |
